What was measured:
cholesterol absorption = assay: Cholesterol Absorption Assay in Rat; assay type: in vivo; details: CD male rats, oral dosing, at the highest dose tested (0.0003 to 1 mg/kg); [3H]-cholesterol counts in liver and plasma
Method: Compounds of this invention were determined to inhibit cholesterol absorption employing the Cholesterol Absorption Assay in Rat, below. This assay involves comparing a test compound to ezetimibe with respect to their ability to inhibit cholesterol absorption in rat.
Cholesterol Absorption Assay in Rats: CD male rats (n=5/group), aged 5 weeks, were dosed orally with 0.5 ml 0.25% methyl cellulose solution with or without test compound or ezetimibe (0.0003 to 1 mg/kg). 0.5 to 16 hrs later all of the rats were dosed orally with 0.5 ml INTRALIPID® containing 5 μCi [^3H]-cholesterol per rat. Five hours later, the animals were euthanized, and liver and blood were collected. Cholesterol counts in liver and plasma were determined, and percent inhibition of cholesterol absorption was calculated.

SMILES | inhibition of cholesterol absorption (cholesterol absorption) | melting point
O=C1[C@H](CC[C@H](O)c2ccc(F)cc2)[C@@H](c2ccc(O)cc2)N1c1ccc(F)cc1 [ezetimibe, Ezetimibe] | > 90% | 
O=C1[C@H](CC[C@H](O)c2ccc(F)cc2)[C@@H](c2ccc(CCC(O)(CO)CO)cc2)N1c1ccc(CCc2nc[nH]n2)cc1 [Example 2, (3R,4S)-4-{4-[3,4-dihydroxy-3-(hydroxymethyl)butyl]phenyl}-3-[(3S)-3-(4-fluorophenyl)-3-hydroxypropyl]-1-{4-[2-(1H-1,2,4-triazol-5-yl)ethyl]phenyl}azetidin-2-one] |  | 104 °C

Reference: patent US20100069347A1, “HETEROCYCLYL-SUBSTITUTED ANTI-HYPERCHOLESTEROLEMIC COMPOUNDS” (priority 2006, published 2010)
